Values of other authors, collected in patent publication US5498598A, “Composition for nasal administration of desmopressin” (Ferring AB, priority 1995, dated 1996).

Settings: in vivo

absorption of a given amount in larger volume versus the same amount in smaller volume: absorbed substantially less effectively
Structure (SMILES): NC(=O)CC[C@@H]1NC(=O)[C@H](Cc2ccccc2)NC(=O)[C@H](Cc2ccc(O)cc2)NC(=O)CCSSC[C@@H](C(=O)N2CCC[C@H]2C(=O)N[C@H](CCCN=C(N)N)C(=O)NCC(N)=O)NC(=O)[C@H](CC(N)=O)NC1=O [desmopressin, 1-(3-mercaptopropionic acid)-8-D-arginine-vasopressin]
